Read-outs that look alike come from different tables or passages of the source. Primed or numbered codes have the meaning given here. * marks the point of attachment. 10Ca‑PXL = paclitaxel conjugated at C10 via a carbamate; 10Ca‑PXL″ = paclitaxel attached at C10 via carbamate; PEG(13) = PEG13 linker; Piv = CC(C)(C)C(=O)*; OBn = c1ccc(CO*)cc1
Experiments:
tubulin = experiment: Fluorescence-based tubulin polymerization assay (MPA; enhancement for paclitaxel, inhibition for vinblastine); format: biochemical
How it was run: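 Tubulin polymerisation was followed by fluorescence (ex 360/em 405 nm) with 1 mg/ml BSA in all assays. For paclitaxel conjugates, glycerol was omitted. Parent drugs and conjugates were tested at 0.75, 1.5, 3 and 10 micromolar final, and values come from the linear range of the dose responses.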

MCF-7 breast carcinoma = experiment: Cytotoxicity assay (monolayer), MCF-7; format: cell-based; conditions: MCF7, ML (monolayer), read-out: MCF7 (EC50 Ave) ML;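 also: cells treated 72 h with 6-8 compound doses versus DMSO vehicle controls, EC50 fitted by 4-parameter dose-response curves, averaged across all tests and lots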
[1] = tested on: HT-29 colorectal carcinoma; experiment: Cytotoxicity assay (monolayer), HT-29; format: cell-based; conditions: HT29, ML (monolayer), read-out: HT29 (EC50 Ave) ML;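 also: monolayer cultures tested in triplicate, compound exposure for three days against DMSO vehicle controls, EC50 fitted from dose-response curves and averaged across all tests and lots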
HUVEC = experiment: Cytotoxicity assay (monolayer), HUVEC; format: cell-based; conditions: ML (monolayer), read-out: HUVEC (EC50 Ave) ML
[2] = tested on: Normal human foreskin fibroblasts (HFF); experiment: cells; conditions: Fibroblast, read-out: HFF (EC50 Ave) ML
MCF-7 cells [3] = experiment: cells; conditions: Homo sapiens, MCF7, read-out: MCF7 (EC50 Ave) SA
HT-29 cells [4] = experiment: cells; conditions: Homo sapiens, HT-29, read-out: HT29 (EC50 Ave) SA
[5] = Serum stability in RPMI1640 medium containing 10% fetal bovine serum; format: in vitro ADME; conditions: for remaining at 4 h, 10 μM / remaining at 8 h, 10 μM / remaining at 24 h, 10 μM / remaining at 72 h, 10 μM / half-life at 10 μM: bovine; for remaining at 4 h, 10 μM: read-out: Relative Percent Remaining at 4 hr; for remaining at 8 h, 10 μM: read-out: Relative Percent Remaining at 8 hr; for remaining at 24 h, 10 μM: read-out: Relative Percent Remaining at 24 hr; for remaining at 72 h, 10 μM: read-out: Relative Percent Remaining at 72 hr; for half-life at 10 μM: read-out: T½ (converted)
Description: The stability of conjugates was measured in RPMI1640 cell culture medium containing 10% fetal bovine serum. The serum-containing medium was pre-warmed at 37° C. for 3 min prior to addition of test articles. Test articles, prepared in DMSO as 5 mM stocks, were added to the cell culture media to a final concentration of 10 μM. Aliquots ([…]) were withdrawn in triplicate at 0, 4, 8, 24 and 72 hours and combined with the same volume of ice-cold acetonitrile to terminate the reaction. The mixture was centrifuged at 2,000×g for 10 minutes. One part of the supernatant was mixed with four parts of deionized water to bring down the percentage of organic solvent. The diluted samples were then assayed by LC/MS for the test article. The natural log of the percent remaining was plotted versus time. A linear fit was used to determine the rate constant. The fit was truncated after the percent of remaining test article was less than 10%. The elimination half-lives associated with the disappearance of test articles were determined to compare their relative stability. The assays were carried out by Absorption Systems (Exton, Pa.).

[6] = tested on: Normal human foreskin fibroblasts (HFF)
MCF-7 cells [7] = tested on: MCF-7 cells
HT-29 cells [8] = tested on: HT-29 cells
[9] = tested on: tumor cells vs normal cells; experiment: Cytotoxic selectivity index (normal cells in monolayer vs tumor cells in soft agar)
Akt = Akt (Homo sapiens, UniProt P31749); experiment: Akt kinase assay (PKLight ATP utilization, substrate phosphorylation as % of parent peptide); format: biochemical; set-up: purchased Upstate (Charlottesville, Va.) 14-276
Description: Another test may involve monitoring the consumption of ATP. For example, ATP concentrations at time 0 or after 4 hour incubation may be monitored by luciferase reaction (PKLight kit obtained from Cambrex Corporation, One Meadowlands Plaza, East Rutherford, N.J. 07073), which generate a luminescence readout in the presence of ATP. Assays are initiated by mixing a kinase and a peptide in the presence of 40 μM ATP. After 4 hour of incubation at 30° C., PKLight reagent is added and mixed well, and luminescence readout measured. The rate of peptide phosphorylation is then directly related to the rate of decrease in the observed luminescence. Based on the first test, linkers of appropriate lengths and peptides with an effective amount of kinase activity which may be expected to be retained in the drug conjugate may be found.
Human Src (#14-326) and Akt (#14-276) kinases were purchased from Upstate (Charlottesville, Va.). Kinase reactions were carried out in 50 μl kinase reaction cocktail (25 mM Tris-HCl, pH 7.5, 5 μM β-glycerophosphate, 2 mM DTT, 0.1 mM Na3VO4, 10 mM MgCl2, 1 mg/ml BSA, […], 0.5 to 1.0 units enzyme). Substrates (peptide or drug-peptide conjugate in […]) were added (25, 50 and 100 μM) and the reaction was incubated for 2-5 hours at 30° C. PKLight reagent (23 μl) (Cambrex BioSciences, Rockland, Me.) was mixed with […] of the above kinase reaction and ATP utilization relative to no substrate and no ATP controls was determined by measuring luminescence with a SpectraMax Gemini EM plate reader (Molecular Devices, Sunnyvale, Calif.). Peptide substrates for Src and Akt have been described. For examples, see Lou et al. Letters in Peptide Science, 2, 289-296 (1995); Lou et al. Bioorganic & Medicinal Chemistry, 4, 677-682 (1996); Alessi et al. FEBS Letters, 399, 333-338 (1996). Substrate phosphorylation potential was determined from the linear portion of the substrate concentration dose response as a percentage of the activity observed with the parent peptide used for drug conjugation.

[10] = read-out: HFF (EC50 Ave) ML, HFF, ML (monolayer)
[11] = read-out: HFFMonolayer EC50, HFF normal cells, monolayer, 72 hours, mean ± SD
[12] = read-out: MCF7 (EC50 Ave) SA, MCF7, SA (soft agar)
[13] = read-out: MCF-7 Soft Agar EC50, MCF-7 tumor cells, soft agar, 10-14 days, mean ± SD
[14] = read-out: HT29 (EC50 Ave) SA, HT29, SA (soft agar)
[15] = read-out: HT-29 Soft Agar EC50, HT-29 tumor cells, soft agar, 10-14 days, mean ± SD

Sequence of Akt (P31749 whole entry): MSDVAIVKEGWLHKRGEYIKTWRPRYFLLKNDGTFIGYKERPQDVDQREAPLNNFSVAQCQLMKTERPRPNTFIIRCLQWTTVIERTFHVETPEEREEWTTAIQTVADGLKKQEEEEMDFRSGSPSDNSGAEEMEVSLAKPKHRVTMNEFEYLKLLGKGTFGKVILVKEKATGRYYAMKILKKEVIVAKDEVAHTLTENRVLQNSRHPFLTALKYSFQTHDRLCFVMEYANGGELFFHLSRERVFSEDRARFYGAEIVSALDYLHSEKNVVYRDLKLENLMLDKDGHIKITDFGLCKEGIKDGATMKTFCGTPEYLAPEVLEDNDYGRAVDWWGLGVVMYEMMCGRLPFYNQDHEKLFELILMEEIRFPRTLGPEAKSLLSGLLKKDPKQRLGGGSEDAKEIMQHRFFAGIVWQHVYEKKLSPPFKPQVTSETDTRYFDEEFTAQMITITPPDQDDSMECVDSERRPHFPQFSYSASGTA

Compound | Ave. MPA Act. (tubulin) | EC50 (MCF-7 breast carcinoma) [nM] | EC50 [1] [nM] | EC50 (HUVEC) [nM] | EC50 [6, 10] [nM] | EC50 (MCF-7 cells [7]; [12]) [nM] | EC50 (HT-29 cells [8]; [14]) [nM] | Ave. Akt Kinase Act. (Akt) | also measured
CC(=O)O[C@H]1C(=O)[C@@]2(C)[C@H]([C@H](OC(=O)c3ccccc3)[C@]3(O)C[C@H](OC(=O)[C@H](O)[C@@H](NC(=O)c4ccccc4)c4ccccc4)C(C)=C1C3(C)C)[C@]1(OC(C)=O)CO[C@@H]1C[C@@H]2O [Paclitaxel (PXL)] | C (C>80) |  |  |  |  |  |  |  | EC50 (MCF-7 breast carcinoma; Homo sapiens): < 20 nM; EC50 ([1]; Homo sapiens, HT-29): < 20 nM; EC50 (HUVEC; Homo sapiens): < 20 nM; EC50 [2]: < 20 nM; EC50 (MCF-7 cells [3]): < 20 nM; EC50 (HT-29 cells [4]): < 20 nM
CC[C@H](C)[C@H](NC(=O)[C@H](Cc1ccc(O)cc1)NC(=O)C(C)(C)C)C(=O)N[C@@H](Cc1ccc(O)cc1)C(=O)NCC(=O)N[C@@H](CO)C(=O)N[C@@H](Cc1ccccc1)C(=O)N[C@@H](CCCNC(=N)N)C(=O)NCCCOCCOCCOCCCNC(=O)O[C@H]1C(=O)[C@@]2(C)[C@H]([C@H](OC(=O)c3ccccc3)[C@]3(O)C[C@H](OC(=O)[C@H](O)[C@@H](NC(=O)c4ccccc4)c4ccccc4)C(C)=C1C3(C)C)[C@]1(OC(C)=O)CO[C@@H]1C[C@@H]2O [Pv-YIYGSFR-PEG(13)-10Ca-PXL] | B (B=50-80) | > 100 | > 100 | > 100 | > 100 | 20 to 100 | > 100 |  | Relative Percent Remaining at 0 hr [5]: 100%; remaining at 4 h, 10 μM [5]: 73%; remaining at 8 h, 10 μM [5]: 63%; remaining at 24 h, 10 μM [5]: 63%; remaining at 72 h, 10 μM [5]: 64%; half-life at 10 μM [5]: > 72 h; EC50 [6, 11]: 2140 nM; EC50 (MCF-7 cells [7]; [13]): 80 ± 13 nM; EC50 (HT-29 cells [8]; [15]): 175 ± 43 nM; Cytotoxic Selectivity Index HFF/HT29 [9]: 12.3; Cytotoxic Selectivity Index HFF/MCF7 [9]: 26.6
CBz-RPRTSSF-PEG(13)-10Ca-PXL (N-CBz; PEG(13) linker; paclitaxel conjugate) | C (C>80) | > 100 | 20 to 100 | > 100 | > 100 | 20 to 100 | 20 to 100 | C (C>40) | 
Ac-RPRTSSF-PEG(13)-10Ca-PXL (N-acetyl; PEG(13) linker; paclitaxel conjugate) | C (C>80) | > 100 | > 100 | > 100 | > 100 | > 100 | 20 to 100 | C (C>40) | 
Pv-GRPRAAAFAEG-PEG(13)-10Ca-PXL (Piv-GRPRAAAFAEG-{PEG(13)-10Ca‑PXL}; also: 2 TFA salt) | C (C>80) | > 100 | > 100 | > 100 | > 100 | 20 to 100 | 20 to 100 | C (C>40) | 
CBz-GRPRTSSFAE(Bzl)G-3Am-VBL | B (B=50-80) | 20 to 100 | 20 to 100 | < 20 | 20 to 100 | 20 to 100 | 20 to 100 | C (C>40) | 
CC[C@]1(O)C[C@@H]2CN(CCc3c([nH]c4ccccc34)[C@@](C(=O)OC)(c3cc4c(cc3OC)N(C)[C@H]3[C@@](O)(C(=O)OC)[C@H](OC(C)=O)[C@]5(CC)C=CCN6CC[C@]43[C@@H]65)C2)C1 [Vinblastine (VBL)] | C (C>80) |  |  |  |  |  |  |  | EC50 (MCF-7 breast carcinoma; Homo sapiens): < 20 nM; EC50 ([1]; Homo sapiens, HT-29): < 20 nM; EC50 (HUVEC; Homo sapiens): < 20 nM; EC50 [2]: < 20 nM; EC50 (MCF-7 cells [3]): < 20 nM; EC50 (HT-29 cells [4]): < 20 nM
Pv-GRPRTSSFAE(Bzl)G-PEG(13)-10Ca-PXL (Piv-GRPRTSSFAE(OBn)G-{PEG(13)-10Ca‑PXL″}) | C (C>80) | > 100 | > 100 | > 100 | > 100 | > 100 | > 100 | C (C>40) | 
CC[C@H](C)[C@H](NC(=O)[C@H](Cc1ccc(O)cc1)NC(=O)OCc1ccccc1)C(=O)N[C@@H](Cc1ccc(O)cc1)C(=O)NCC(=O)N[C@@H](CO)C(=O)N[C@@H](Cc1ccccc1)C(=O)N[C@@H](CCCCN)C(=O)NCCOCCOCCOCCNC(=O)[C@@]1(O)[C@H](O)[C@]2(CC)C=CCN3CC[C@@]4(c5cc([C@@]6(C(=O)OC)C[C@@H]7CN(CCc8c6[nH]c6ccccc86)C[C@](O)(CC)C7)c(OC)cc5N(C)[C@@H]14)[C@@H]32 [CBz-YIYGSFK-PEG(11)-3Am-VBL] |  | > 100 | > 100 | > 100 | > 100 | > 100 | > 100 |  | Relative Percent Remaining at 0 hr [5]: 100%; remaining at 4 h, 10 μM [5]: 88%; remaining at 8 h, 10 μM [5]: 102%; remaining at 24 h, 10 μM [5]: 100%; remaining at 72 h, 10 μM [5]: 61%; half-life at 10 μM [5]: > 72 h; EC50 [6, 11]: 655 ± 186 nM; EC50 (MCF-7 cells [7]; [13]): 156 ± 37 nM; EC50 (HT-29 cells [8]; [15]): 464 ± 351 nM; Cytotoxic Selectivity Index HFF/HT29 [9]: 1.4; Cytotoxic Selectivity Index HFF/MCF7 [9]: 4.2

From patent US20060234909A1, “Compositions and methods for increasing drug efficiency” (priority 2003, published 2006)
